Assay results as given in US20060069132A1, “Azolecarboxamide herbicides” (priority 2004, published 2006).

Key:
[1] = tested on: wheat; experiment: Test B postemergence herbicide test; type: in vivo, Triticum aestivum; set-up: key to Wheat plant response rating: 0 = no effect, 100 = complete control; details: scale 0 (no effect) to 100 (complete control)
Summary of the method: (§1)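 Treated at 2-leaf (paddy) or 1–4-leaf, 2–18 cm (postemergence); greenhouse 13–15 d; visual score vs control, 0 none to 100 complete control; dash = not tested.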

[2] = tested on: velvetleaf; experiment: Test B pre-/postemergence herbicide test; type: in vivo, Abutilon theophrasti
Summary of the method: (§2)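 Visual rating, 0 (no effect) to 100 (complete control), versus untreated controls after 13–15 d in greenhouse. Pre- and postemergence applications (postemergence plants 2–18 cm, 1–4 leaves); flooded paddy arm at 2-leaf stage. Compounds in non-phytotoxic solvent plus surfactant.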

[3] = tested on: pigweed; experiment: Test B pre-/postemergence herbicide test; type: in vivo, Amaranthus retroflexus
Summary of the method: as §2

[4] = tested on: barnyardgrass; experiment: Test B pre-/postemergence herbicide test; type: in vivo, Echinochloa crus-galli
Summary of the method: (§3)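 Species tested were Echinochloa crus-galli, Ipomoea coccinea, Xanthium strumarium and Oryza sativa, treated both before emergence and at the 1- to 4-leaf stage; rice and barnyardgrass were also tested under flooding at 2 leaves. Greenhouse incubation lasted 13–15 days before visual 0–100 scoring.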

[5] = tested on: ducksalad; experiment: Test B flooded paddy test; type: in vivo, Heteranthera limosa; details: 1000 g ai/ha, visual rating, scale 0 to 100 (0 no effect, 100 complete control), 13 to 15 days
Summary of the method: (§4)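 Plants grow to 1- to 4-leaf stage (2–18 cm) for postemergence spraying, or to 2-leaf stage for the paddy test. Formulated compound is applied. Greenhouse holding lasts 13–15 days. Response is scored visually relative to controls, 0 no effect to 100 complete control; a dash means no result.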

[6] = tested on: wild oat; experiment: Test B postemergence herbicide test; type: in vivo, Avena fatua; details: scale 0 (no effect) to 100 (complete control)
Summary of the method: as §1

[7] = tested on: corn; experiment: Test B pre-/postemergence herbicide test; type: in vivo, Zea mays
Summary of the method: as §2

[8] = tested on: blackgrass; experiment: Test B postemergence herbicide test; type: in vivo, Alopecurus myosuroides; details: scale 0 (no effect) to 100 (complete control)
Summary of the method: as §4

[9] = tested on: giant foxtail; experiment: Test B pre-/postemergence herbicide test; type: in vivo, Setaria faberi
Summary of the method: as §2

[10] = tested on: large crabgrass; experiment: Test B pre-/postemergence herbicide test; type: in vivo, Digitaria sanguinalis
Summary of the method: as §2

[11] = tested on: rice; experiment: Test B flooded paddy test; type: in vivo, Oryza sativa; details: 1000 g ai/ha, visual rating, scale 0 to 100 (0 no effect, 100 complete control), 13 to 15 days
Summary of the method: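 Read-out: visual comparison with controls, scored 0 to 100, where 100 means complete control and 0 no effect. Formulated chemicals were applied postemergence to plants 2–18 cm tall (1- to 4-leaf), or to flooded-paddy plants at the 2-leaf stage, then held 13 to 15 days under glass.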

[12] = tested on: cocklebur; experiment: Test B pre-/postemergence herbicide test; type: in vivo, Xanthium strumarium
Summary of the method: as §3

[13] = tested on: small flower umbrella sedge; experiment: Test B flooded paddy test; type: in vivo, Cyperus difformis; details: 1000 g ai/ha, visual rating, scale 0 to 100 (0 no effect, 100 complete control), 13 to 15 days
Summary of the method: as §4

[14] = tested on: Surinam grass; experiment: Test B pre-/postemergence herbicide test; type: in vivo, Urochloa decumbens
Summary of the method: as §2

[15] = tested on: lambsquarters; experiment: Test B pre-/postemergence herbicide test; type: in vivo, Chenopodium album
Summary of the method: as §2

[16] = Postemergence, 500 g ai/ha, visual rating after 13 to 15 days
[17] = postemergence, 125 g ai/ha, visual rating
[18] = Postemergence, 500 g ai/ha, visual rating after 13 to 15 days, scale 0 (no effect) to 100 (complete control)
[19] = postemergence, 125 g ai/ha, visual rating, scale 0 (no effect) to 100 (complete control)
[20] = preemergence, 125 g ai/ha, 0 to 100 scale, 0 is no effect, 100 is complete control
[21] = Preemergence, 500 g ai/ha, scale 0 to 100

CCn1nc(C(C)(C)C)cc1C(=O)Nc1cccc(C(=O)OC)c1 [Compound 81]
20: Wheat plant response rating [1, 17] | Plant response rating, Pigweed [3, 20] | Oat, Wild plant response rating [6, 17] | Plant response rating, Blackgrass [8, 16] | Foxtail, Giant plant response rating [9, 19] | Plant response rating, Crabgrass, Large [10, 18]
40: Plant response rating, Wheat [1, 16] | Surinam Grass plant response rating [14, 19]
70: Barnyardgrass plant response rating [4, 19] | Cocklebur plant response rating [12, 19]
50: Pigweed plant response rating [3, 19] | Plant response rating, Foxtail, Giant [9, 18] | Plant response rating, Lambsquarters [15, 18]
90: Plant response rating, Velvetleaf [2, 18] | Plant response rating, Pigweed [3, 18] | Plant response rating, Barnyardgrass [4, 18] | Plant response rating, Cocklebur [12, 18]
30: Plant response rating, Oat, Wild [6, 16] | Plant response rating, Corn [7, 18]
0: Plant response rating, Velvetleaf [2, 20] | Corn plant response rating [7, 21] | Plant response rating, Corn [7, 20] | Blackgrass plant response rating [8, 17] | Plant response rating, Crabgrass, Large [10, 20] | Cocklebur plant response rating [12, 21] | Plant response rating, Cocklebur [12, 20] | Plant response rating, Surinam Grass [14, 20] | Lambsquarters plant response rating [15, 19] | Plant response rating, Lambsquarters [15, 20]
60: Barnyardgrass plant response rating [4, 21] | Foxtail, Giant plant response rating [9, 21] | Rice plant response rating [11] | Plant response rating, Surinam Grass [14, 18]
10: Plant response rating, Barnyardgrass [4, 20] | Corn plant response rating [7, 19] | Plant response rating, Foxtail, Giant [9, 20] | Crabgrass, Large plant response rating [10, 21] | Crabgrass, Large plant response rating [10, 19]
80: Velvetleaf plant response rating [2, 19] | Ducksalad plant response rating [5] | Sedge, Umbrella plant response rating [13]
